# Experimental data reported in patent US11090247B2, “Compositions for protecting the skin from heavy metals and formaldehyde” (FNG RESEARCH CO., LTD., priority 2016, dated 2021).
# Columns and labels:
# [1] = Removal test of heavy metals of active ingredients (pig skin, ICP-MS): Pb; conditions: contaminated pig skin
# Description: (§1) (1) Preparation of Heavy Metal Contamination Sources and Pig Skin Samples
# (§2) A pig was slaughtered, flayed and the bristle was shaved. The pig skin was cut to prepare 5*5 cm size of skin samples respectively.
# (§3) The said skin samples were cleanly wiped with wet gauze, and then, added to 50 ml of methanol and extracted by shaking with ultrasonic for 60 min. 50 ml of methanol was further added and mixed. The pig skin samples were removed from the extracted solutions to prepare the test solutions.
# (§4) The test solutions were analyzed for heavy metal components using an inductively coupled plasma mass spectrometer (ICP-MS, Xseries™ 2, Thermo Fisher Scientific, UK).
# [2] = Removal test of heavy metals of active ingredients (pig skin, ICP-MS): Cd; conditions: contaminated pig skin
# Description: as §1, §2, §3, §4
# [3] = Removal test of heavy metals of active ingredients (pig skin, ICP-MS): Cu; conditions: contaminated pig skin
# Description: as §1, §2, §3, §4
# human skin = assay: Skin irritation test of active ingredient (patch method, CTFA guidelines); type: in vivo; set-up: key to Degree of irritation: 0–0.1 none, 0.11–0.3 weak, 0.31–0.5 moderate, ≥0.51 strong irritation; conditions: 20 people, patch 24 hours; for Test result(number of subject) (+): (+): Apparent reddening than periphery; for Test result(number of subject) (++): (++): More reddened and swollen than periphery; for Test result(number of subject) (±): (±): slightly reddish than the periphery; for Test result(number of subject) (−): (−): No erythema or particularly no symptoms
# Description: A total of 20 people (10 men and 10 women in their 20 s and 30 s) were tested for skin irritation using the patch method according to the guidelines of CTFA (The Cosmetic, Toiletry & Fragrance Association, Inc. Washington, D.C.).
# A filter paper disk was placed in an 8 mm diameter, 10 panels of pin chamber.
# After 24 hours, the pin chamber was removed, and skin conditions were visually observed.
# [Criteria for Skin Irritation]
# (−): No erythema or particularly no symptoms; (±): slightly reddish than the periphery; (+): Apparent reddening than periphery; (++): More reddened and swollen than periphery.
# [Grade for Skin Irritation]
# Degree of irritation 0-0.1: Grade I (unstimulated);
# Degree of irritation 0.11-0.3: Grade II (weakly stimulated);
# Degree of irritation 0.31-0.5: Grade III (moderately stimulated);
# Degree of irritation 0.51 or more: Grade IV (strongly stimulated)
# [4] = Formaldehyde removing ability test (GC); conditions: 2.0% formaldehyde solution; for Area (mAU*min) 30 min: formaldehyde GC area after 30 min; for Area (mAU*min) 30 min / Area (mAU*min) 180 min: 3 molar equivalents, room temperature; for Area (mAU*min) 180 min: formaldehyde GC area after 180 min; for Area (mAU*min) Initial: formaldehyde GC area, initial state, 3 molar equivalents of compound
Compound,Removal of Heavy metals Pb (%) ([1]; 0.1 wt % aqueous solution),Removal of Heavy metals Pb (%) ([1]; 0.5 wt % aqueous solution),Removal of Heavy metals Pb (%) ([1]; 1.0 wt % aqueous solution),Removal of Heavy metals Cd (%) ([2]; 0.1 wt % aqueous solution),Removal of Heavy metals Cd (%) ([2]; 0.5 wt % aqueous solution),Removal of Heavy metals Cd (%) ([2]; 1.0 wt % aqueous solution),Removal of Heavy metals Cu (%) ([3]; 0.1 wt % aqueous solution),Removal of Heavy metals Cu (%) ([3]; 0.5 wt % aqueous solution),Removal of Heavy metals Cu (%) ([3]; 1.0 wt % aqueous solution),Degree of irritation (human skin; 0.1 wt %),Grade (human skin; 0.1 wt %),Test result(number of subject) (+) (human skin; 0.1 wt %),Test result(number of subject) (++) (human skin; 0.1 wt %),Test result(number of subject) (±) (human skin; 0.1 wt %),Test result(number of subject) (−) (human skin; 0.1 wt %),Degree of irritation (human skin; 0.5 wt %),Grade (human skin; 0.5 wt %),Test result(number of subject) (+) (human skin; 0.5 wt %),Test result(number of subject) (++) (human skin; 0.5 wt %),Test result(number of subject) (±) (human skin; 0.5 wt %),other results
"O=C(O)c1cncc(N2CCN(c3cncc(C(=O)O)c3)CCN(c3cncc(C(=O)O)c3)CCN(c3cncc(C(=O)O)c3)CC2)c1 [Embodiment 7, 5,5′,5″,5′″-(1,4,7,10-tetraazacyclododecane-1,4,7,10-tetrayl)tetranicotinic acid]",90.8,93.1,93.6,87.9,89.4,90.7,93.8,95.1,96.0,0,I (Degree of irritation 0-0.1: Grade I (unstimulated)),0,0,0,20,0,I (Degree of irritation 0-0.1: Grade I (unstimulated)),0,0,0,Test result(number of subject) (−) (human skin; 0.5 wt %): 20; Degree of irritation (human skin; 1.0 wt %): 0; Grade (human skin; 1.0 wt %): I (Degree of irritation 0-0.1: Grade I (unstimulated)); Test result(number of subject) (+) (human skin; 1.0 wt %): 0; Test result(number of subject) (++) (human skin; 1.0 wt %): 0; Test result(number of subject) (±) (human skin; 1.0 wt %): 0; Test result(number of subject) (−) (human skin; 1.0 wt %): 20; Area (mAU*min) 30 min [4]: 0.181 mAU*min; Area (mAU*min) 180 min [4]: 0 mAU*min; Area (mAU*min) Initial [4]: 0.305 mAU*min
"O=C(O)c1ccc(N2CCN(c3ccc(C(=O)O)o3)CCN(c3ccc(C(=O)O)o3)CCN(c3ccc(C(=O)O)o3)CC2)o1 [Embodiment 8, 5,5′,5″,5′″-(1,4,7,10-tetraazacyclododecane-1,4,7,10-tetrayl)tetrakis(furan-2-carboxylic acid)]",91.4,93.4,94.0,90.4,91.3,93.4,94.3,96.8,97.2,0,I (Degree of irritation 0-0.1: Grade I (unstimulated)),0,0,0,20,0,I (Degree of irritation 0-0.1: Grade I (unstimulated)),0,0,0,Test result(number of subject) (−) (human skin; 0.5 wt %): 20; Degree of irritation (human skin; 1.0 wt %): 0.10; Grade (human skin; 1.0 wt %): I (Degree of irritation 0-0.1: Grade I (unstimulated)); Test result(number of subject) (+) (human skin; 1.0 wt %): 0; Test result(number of subject) (++) (human skin; 1.0 wt %): 0; Test result(number of subject) (±) (human skin; 1.0 wt %): 2; Test result(number of subject) (−) (human skin; 1.0 wt %): 18; Area (mAU*min) 30 min [4]: 0.168 mAU*min; Area (mAU*min) 180 min [4]: 0 mAU*min; Area (mAU*min) Initial [4]: 0.305 mAU*min
"O=C(O)CN1CCCN(CC(=O)O)CCN(CC(=O)O)CCCN(CC(=O)O)CC1 [Embodiment 9, 2,2′,2″,2′″-(1,4,8,11-tetraazacyclotetradecane-1,4,8,11-tetrayl)tetraacetic acid]",88.9,91.0,91.4,89.1,91.3,91.9,94.3,96.9,97.3,0,I (Degree of irritation 0-0.1: Grade I (unstimulated)),0,0,0,20,0,I (Degree of irritation 0-0.1: Grade I (unstimulated)),0,0,0,Test result(number of subject) (−) (human skin; 0.5 wt %): 20; Degree of irritation (human skin; 1.0 wt %): 0.10; Grade (human skin; 1.0 wt %): I (Degree of irritation 0-0.1: Grade I (unstimulated)); Test result(number of subject) (+) (human skin; 1.0 wt %): 0; Test result(number of subject) (++) (human skin; 1.0 wt %): 0; Test result(number of subject) (±) (human skin; 1.0 wt %): 2; Test result(number of subject) (−) (human skin; 1.0 wt %): 18; Area (mAU*min) 30 min [4]: 0.182 mAU*min; Area (mAU*min) 180 min [4]: 0 mAU*min; Area (mAU*min) Initial [4]: 0.305 mAU*min
"O=C(O)c1ccc(N2CCCN(c3ccc(C(=O)O)cc3)CCN(c3ccc(C(=O)O)cc3)CCCN(c3ccc(C(=O)O)cc3)CC2)cc1 [Embodiment 10, 4,4′,4″,4′″-(1,4,8,11-tetraazacyclotetradecane-1,4,8,11-tetrayl)tetrabenzoic acid]",88.3,90.5,90.9,85.7,90.4,91.1,94.1,96.0,96.5,0,I (Degree of irritation 0-0.1: Grade I (unstimulated)),0,0,0,20,0,I (Degree of irritation 0-0.1: Grade I (unstimulated)),0,0,0,Test result(number of subject) (−) (human skin; 0.5 wt %): 20; Degree of irritation (human skin; 1.0 wt %): 0.05; Grade (human skin; 1.0 wt %): I (Degree of irritation 0-0.1: Grade I (unstimulated)); Test result(number of subject) (+) (human skin; 1.0 wt %): 0; Test result(number of subject) (++) (human skin; 1.0 wt %): 0; Test result(number of subject) (±) (human skin; 1.0 wt %): 1; Test result(number of subject) (−) (human skin; 1.0 wt %): 19; Area (mAU*min) 30 min [4]: 0.171 mAU*min; Area (mAU*min) 180 min [4]: 0 mAU*min; Area (mAU*min) Initial [4]: 0.305 mAU*min
